The test system of data set [1] is LoVo cells (wild-type EGFR human colon adenocarcinoma). The data set can be described thus: Cell growth inhibition (Cell Titer-Glo), LoVo. It counts as cell-based. As to conditions: 72 hours drug treatment, 3 nM to 10 μM. Here is the method: (§1) Experiment of Cell Growth Inhibition
(§2) The LoVo cell line is a wild-type EGFR human colon adenocarcinoma cell, and is grown in F-12K medium (GIBCO) containing 10% FBS. NCI-H2073 cell line is a wild-type EGFR human non-small cell lung cancer cell and grown in ACL-4 medium containing 10% FBS. The growth rate of NCI-H1975, LoVo and NCI-H2073 cells was detected by Cell Titer-Glo luminescence activity assay (Promega #G7572).
(§3) Briefly, trypsin was used for digesting cells in the logarithmic growth phase. 96-well plates were seeded with 50,000 Lovo or NCI-H2073 cells, 2500-3000 NCI-H1975 cells per well and provided with blank control wells containing only nutrient solution without inoculated cell, and the plates were incubated in a humidified incubator with 5% CO2 at 37° C. […] The concentration of test drug in NCI-H1975 cells was from 0.03 nM to 100 nM, and that in LoVo and NCI-H2073 cells was from 3 nM to 10 μM. The cell culture medium containing the different compounds was then added to a 96-well cell plate in which one cell control well comprising cell culture medium only containing DMSO was provided. After a drug treatment for 72 hours, the cell plates were removed from the incubator and allowed to stand at room temperature for 30 minutes. Next, Cell Titer-Glo reagent was added to the wells and the 96-well cell plate was shaken at room temperature for 10 minutes to induce cell lysis. The 96-well cell plate was placed on the bench for 2 minutes to stabilize the luminescence signal. Finally, the 96-well cell plate was placed in an EnVision Multi-labeled Microplate Reader (PerkinElmer), and the signal was read with an integral time of 0.5 seconds.
(§4) Formula: Percentage of cell growth inhibition %=(maximum signal−compound signal)/(maximum signal−minimum signal)*100%
(§5) The maximal signal was obtained from the cell control well which were treated with the DMSO solution having no any compound;
(§6) The compound signal was obtained from the drug-treated cell wells to which the compound was added;
(§7) The minimum signal was obtained from a blank control well to which no cells and only nutrient solution was added.
On the technique in general: Cellular ATP, detected with luciferase, serves as a proxy for viable cell number.

Data set [2] deals with NCI-H2073 cells (wild-type EGFR human non-small cell lung cancer). The experiment in a line: Cell growth inhibition (Cell Titer-Glo), NCI-H2073. It counts as cell-based. As to conditions: 72 hours drug treatment, 3 nM to 10 μM. On the procedure:
as §1
as §2, with “The compounds that were preferentially targeted for EGFR targeting certain mutations and relatively weak in wild-type EGFR were identified by determining the growth of cells. The NCI-H1975 cell line is a human non-small cell lung cancer cell containing T790M and L858R EGFR mutations, and the cell is grown in RPMI-1640 medium (GIBCO) containing 10% fetal bovine serum (FBS). The LoVo” for “The LoVo”
Briefly, trypsin was used for digesting cells in the logarithmic growth phase. 96-well plates were seeded with 50,000 Lovo or NCI-H2073 cells, 2500-3000 NCI-H1975 cells per well and provided with blank control wells containing only nutrient solution without inoculated cell, and the plates were incubated in a humidified incubator with 5% CO2 at 37° C. After 24 hours, the DMSO solution of the different compounds was diluted with a cell culture medium at 3.16 times per time to eight different concentrations from high to low levels. The concentration of test drug in NCI-H1975 cells was from 0.03 nM to 100 nM, and that in LoVo and NCI-H2073 cells was from 3 nM to 10 μM. The cell culture medium containing the different compounds was then added to a 96-well cell plate in which one cell control well comprising cell culture medium only containing DMSO was provided. After a drug treatment for 72 hours, the cell plates were removed from the incubator and allowed to stand at room temperature for 30 minutes. Next, Cell Titer-Glo reagent was added to the wells and the 96-well cell plate was shaken at room temperature for 10 minutes to induce cell lysis. The 96-well cell plate was placed on the bench for 2 minutes to stabilize the luminescence signal. Finally, the 96-well cell plate was placed in an EnVision Multi-labeled Microplate Reader (PerkinElmer), and the signal was read with an integral time of 0.5 seconds.
as §4, §5, §6, §7

In data set [3] the test system is NCI-H1975 cells (T790M and L858R EGFR mutations). The data set can be described thus: Cell growth inhibition (Cell Titer-Glo), NCI-H1975. The class given is cell-based. As to conditions: Homo sapiens, 72 hours drug treatment, 0.03 nM to 100 nM. On the procedure: as §1, §2, §3, §4, §5, §6, §7
Data set [4] can be described thus: Concentration of parent drug and metabolite AZ5104 in rat plasma. It counts as in vivo. As to conditions: po, adult male rats, intragastrically, 10 mg/kg, 0.25-24 hours. Here is the method: Comparison of the concentration of the metabolite AZ5104 in rats' body plasma of the pyrimidine compounds according to the present invention and AZD9291
Briefly, AZD9291 or the compound 49.(HCl)n of Example 49 or the compound 104.(MsOH) of Example 104 were administered intragastrically to 200-220 g of adult male rats at amount of 10 mg/kg. Each administration group had two to three rats. After administration, 150 μl of blood was extracted from the vein on the rat tail at different times (0.25, 0.5, 1, 2, 4, 6, 8, 12 and 24 hours), put in a tube with K2EDTA and placed immediately on ice. Then, the blood sample was centrifuged in centrifuge with a 4-degree at a speed of 2000 g for 15 minutes. The plasma was separated and placed in a small tube and stored in a refrigerator at −80° C. The concentration of parent drug and metabolite in plasma sample was analyzed by LC/MS.

The values below come from patent US11498921B1, “Pyrimidine or pyridine compounds, preparation method therefor and pharmaceutical uses thereof” (INVENTISBIO CO., LTD., priority 2014, dated 2022).

Structures can show the parent of a compound that is named as a salt. A value given as a limit tells only on which side of the number the result lay.

As a reminder, the IC50 is the concentration that inhibits the measured activity by half. Turning to `C=CC(=O)Nc1cc(Nc2nccc(N3CC(C)(C)c4ccccc43)n2)c(OC)cc1N(C)CCN(C)C` [37. (MsOH)3], the IC50 in data set [1] was 4660 nM; in data set [2], 260 nM; in data set [3], 8.1 nM.
Turning to `C=CC(=O)Nc1cc(Nc2nccc(N3CC4(CC4)c4ccccc43)n2)c(OC)cc1N(C)CCN(C)C` [38. (HCl)n], the IC50 turned out to be 2990 nM in data set [1], 476 nM in data set [2] and 8.2 nM in data set [3].
On the same counts, the results for `C=CC(=O)Nc1cc(Nc2nccc(-n3c(=O)[nH]c4ccccc43)n2)c(OC)cc1N(C)CCN(C)C` [39. (MsOH)3] are 3390 nM, 18 nM and 0.8 nM.
On the same counts, the results for `C=CC(=O)Nc1cc(Nc2nccc(-n3c(=O)n(C)c4ccccc43)n2)c(OC)cc1N(C)CCN(C)C` [40. (MsOH)3] are 6090 nM, 183 nM and 1.3 nM.
`C=CC(=O)Nc1cc(Nc2nccc(-c3cccc4c3ccn4C)n2)c(OC)cc1N(C)CCN(C)C` [41. (HCl)n]: the IC50 is greater than 10000 nM in data set [1], 340 nM in data set [2] and 7.4 nM in data set [3].
On the same counts, the results for `C=CC(=O)Nc1cc(Nc2nccc(-c3cccc4c3cnn4C)n2)c(OC)cc1N(C)CCN(C)C` [42. (HCl)n] are 7100 nM, 490 nM and 7.1 nM.
On the same counts, the results for `C=CC(=O)Nc1cc(Nc2cc(-c3cn(C)c4ccccc34)ncn2)c(OC)cc1N(C)CCN(C)C` [44. (HCl)n] are 870 nM, 280 nM and 14 nM.
`C=CC(=O)Nc1cc(Nc2nccc(-c3cn(CC)c4ccccc34)n2)c(OC)cc1N(C)CCN(C)C` [48. (HCl)n]: the IC50 in data set [1] worked out at 2340 nM; in data set [2], 435 nM; in data set [3] it was 5.5 nM.
For orientation: AUC means the area under the concentration-time curve, a measure of exposure. Take `C=CC(=O)Nc1cc(Nc2nccc(-c3cn(S(C)(=O)=O)c4ccccc34)n2)c(OC)cc1N(C)CCN(C)C` [49. (HCl)n]: the area under the curve (AUC) in data set [4] was found to be 0.91 µM·h. The values for the IC50 in data set [1], in data set [2] and in data set [3] were 2260 nM, 135 nM and 0.7 nM, respectively.
With `C=CC(=O)Nc1cc(Nc2nccc(-n3[nH]c(=O)c4ccccc43)n2)c(OC)cc1N(C)CCN(C)C` [50. (HCl)n], the IC50 was greater than 10000 nM in data set [1], 290 nM in data set [2] and 9.2 nM in data set [3].
Taken in the same sequence, the figures for `C=CC(=O)Nc1cc(Nc2nccc(-c3nn(CC)c4ccccc34)n2)c(OC)cc1N(C)CCN(C)C` [51. (HCl)n] were 1280 nM, 325 nM and 2.6 nM.
On the same counts, the results for `C=CC(=O)Nc1cc(Nc2nccc(-c3nc(C)c4ccccn34)n2)c(OC)cc1N(C)CCN(C)C` [52. (HCl)n] are 6100 nM, 220 nM and 5.2 nM.
Take `C=CC(=O)Nc1cc(Nc2nccc(-c3cn(C)c4ccccc34)n2)c(OC)cc1N(C)CCN1CCC(O)C1` (centres unmarked) [53. (HCl)n]: the IC50 in data set [1] amounted to 2860 nM; in data set [2], 690 nM; in data set [3], 14 nM.
On to `C=CC(=O)Nc1cc(Nc2nccc(-n3ccc(=O)c4ccccc43)n2)c(OC)cc1N(C)CCN(C)C` [56. (HCl)n], for which the IC50 in data set [1] is 4180 nM; in data set [2] it was greater than 10000 nM; in data set [3], 36 nM.
On the same counts, the results for `[2H]C([2H])([2H])N(CCN(C)C)c1cc(OC)c(Nc2nccc(-n3c(=O)n(C)c4ccccc43)n2)cc1NC(=O)C=C` [59. (HCl)n] are 4180 nM, 120 nM and 1.3 nM.
With `[2H]C([2H])([2H])Oc1cc(N(C)CCN(C)C)c(NC(=O)C=C)cc1Nc1nccc(-n2c(=O)n(C)c3ccccc32)n1` [60. (HCl)n], the results for the IC50 in data set [1], in data set [2] and in data set [3] were 4070 nM, 110 nM and 1.4 nM, respectively.
For `C=CC(=O)Nc1cc(Nc2nccc(-c3cn(CC(F)(F)F)c4ccccc34)n2)c(OC)cc1N(C)CCN(C)C` [104. (MsOH)2], the AUC in data set [4] worked out at 1.49 µM·h. For the same compound, the IC50 in data set [2] came out at 977 nM; in data set [3], 16.5 nM.
On to `C=CC(=O)Nc1cc(Nc2nccc(-c3cn(C)c4ccccc34)n2)c(OC)cc1N(C)CCN(C)C` [AZD9291, reference compound], for which the AUC in data set [4] stood at 0.64 µM·h.
As to `C=CC(=O)Nc1cc(Nc2nccc(-c3cn(C)c4ccccc34)n2)c(OC)cc1N1CC(N2CCC2)C1` [Example 22], the IC50 in data set [1] is greater than 10000 nM; in data set [2] it was greater than 10000 nM; in data set [3], 20.5 nM.
